Key:
[1] = system: arachidonic acid induced pulmonary obstruction; experiment: protection against sudden death due to arachidonic acid induced pulmonary obstruction; type: in vivo; conditions: mice, orally, 100 mg/kg
[2] = system: plasma thromboxane B2 and 6-keto-PGF1α; experiment: reduction of plasma levels of thromboxane in vivo after arachidonic acid challenge; conditions: guinea pig
Method: The reduction of plasma levels of thromboxane is determined in vivo on administration of the test compound to guinea pigs in the following manner:
Guinea pigs are dosed with vehicle or test drug and injected intraperitoneally with arachidonic acid (40 mg/kg) 2 hours later. Blood is collected for analysis 1 hour after the arachidonic acid challenge. A single aliquot of each plasma sample is assayed for thromboxane B2 and another aliquot for 6-keto-PGF1 α, the stable metabolites of thromboxane A2 and prostacyclin (PGI2) respectively.

[3] = biological target: T1, prostacyclin (PGI2) synthetase (microsomal fraction of bovine aorta) (Bos taurus, UniProt Q29626); experiment: in-vitro effect on prostacyclin (PGI2) synthetase (6-keto-PGF1α/PGE2 ratio); type: biochemical; conditions: read-out: IC50 for inhibition of prostacyclin synthetase
T1 construct: crude PGI2 synthetase in the form of a microsomal fraction of bovine aorta; from tissue; host or cells: bovine aorta, microsomal fraction
T1 sequence (Q29626 1-500): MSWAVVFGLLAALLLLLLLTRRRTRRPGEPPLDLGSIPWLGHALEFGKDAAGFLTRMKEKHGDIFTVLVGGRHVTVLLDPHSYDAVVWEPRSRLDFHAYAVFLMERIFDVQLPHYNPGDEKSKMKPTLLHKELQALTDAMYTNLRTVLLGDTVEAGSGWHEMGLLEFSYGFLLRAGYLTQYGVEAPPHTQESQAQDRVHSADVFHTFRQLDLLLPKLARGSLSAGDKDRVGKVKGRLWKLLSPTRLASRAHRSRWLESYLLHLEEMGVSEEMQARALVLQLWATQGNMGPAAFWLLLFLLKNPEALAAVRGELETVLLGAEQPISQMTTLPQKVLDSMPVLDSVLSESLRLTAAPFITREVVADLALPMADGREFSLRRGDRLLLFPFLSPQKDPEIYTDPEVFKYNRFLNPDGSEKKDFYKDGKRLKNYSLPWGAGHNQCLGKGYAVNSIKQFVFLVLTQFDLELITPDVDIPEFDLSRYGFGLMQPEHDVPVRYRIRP
Method: The in-vitro effect on prostacyclin (PGI2) synthetase is measured analogous to the method of Sun et al., Prostaglandins 14, 1055 (1977);
The testing procedure is as follows:
^14 C-Arachidonic acid is incubated with an enzyme mixture consisting of solubilized and partially purified prostaglandin cyclo-oxygenase from sheep seminal vesicles and crude PGI2 synthetase in the form of a microsomal fraction of bovine aorta.
Test compound (dissolved in buffer, or if necessary, in a small amount of ethanol) is placed in the incubation medium. The reaction mixture is incubated in 100 mM Tris HCl (pH 7.5) for 30 minutes at 37° C., acidified to pH 3 and extracted into ethyl acetate. The extract is evaporated to dryness; the residue is dissolved in acetone, spotted on thin-layer plates and chromatographed in a solvent system described by Sun et al. The radioactive zones are located with a scanner; those corresponding to 6-keto-PGF1 α (a stable end product of prostacyclin biotrasformation) and PGE2 are transferred to liquid scintillation vials and counted. The ratio of counts for 6-keto-PGF1 α/PGE2 is calculated for each concentration of test compound used. IC50 values for inhibition are determined graphically as the concentration of test compound at which the ratio of 6-keto-PGF1 α/PGE2 is reduced to 50% of the control value.

[4] = biological target: T2, thromboxane synthetase from lysed human platelets (Homo sapiens, UniProt P24557); experiment: in vitro inhibition of the thromboxane synthetase enzyme (TxB2/PGF2α+β ratio from 14C-arachidonic acid); type: biochemical; conditions: human platelet microsomal enzyme, 30 minutes incubation
T2 construct: crude microsomal preparation of thromboxane synthetase from lysed human platelets; from tissue; host or cells: human platelets, lysed; crude microsomal preparation
T2 sequence (P24557 1-533): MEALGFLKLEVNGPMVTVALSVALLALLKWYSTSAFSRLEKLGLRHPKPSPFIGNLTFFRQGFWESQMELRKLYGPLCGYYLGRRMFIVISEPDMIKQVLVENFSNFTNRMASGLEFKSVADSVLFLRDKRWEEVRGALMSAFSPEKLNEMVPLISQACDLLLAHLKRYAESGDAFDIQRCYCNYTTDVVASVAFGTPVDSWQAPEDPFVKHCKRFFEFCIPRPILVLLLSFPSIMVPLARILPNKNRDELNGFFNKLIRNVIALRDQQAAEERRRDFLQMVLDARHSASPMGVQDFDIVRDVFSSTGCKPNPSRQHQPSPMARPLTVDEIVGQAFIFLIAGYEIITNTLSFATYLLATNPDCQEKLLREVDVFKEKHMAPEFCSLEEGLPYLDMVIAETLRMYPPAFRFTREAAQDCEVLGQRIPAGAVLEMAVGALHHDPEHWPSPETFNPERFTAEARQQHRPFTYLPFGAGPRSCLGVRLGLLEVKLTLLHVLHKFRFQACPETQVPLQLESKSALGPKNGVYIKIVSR
Method: Res. Comm. 74, 1432 (1977); the testing procedure is as follows:
The test compound (dissolved in buffer, or if necessary, in a small amount of ethanol) is added to the incubation medium. […] The radioactive products and excess substrate are extracted into ethyl acetate; the extract is evaporated to dryness; the residue is dissolved in acetone, spotted on thin-layer plates and chromatographed in the solvent system toluene: acetone: glacial acetic acid (100 volumes: 100 volumes: 3 volumes).

bleeding time = experiment: prolongation of bleeding time in the rat; type: in vivo; conditions: rats, dose of about 1 mg/kg i.p. or lower
From the text: For example, in thromboembolism, specific inhibition of the enzyme thromboxane synthetase reduces arachidonic acid induced platelet aggregation involved in clot formation. Experimentally, prolongation of bleeding time in the rat is indicative of a beneficial antithrombotic effect.

[5] = biological target: T3, prostaglandin cyclooxygenase (sheep seminal vesicle microsomes) (Ovis aries, UniProt P05979); experiment: in-vitro effect on prostaglandin cyclooxygenase (conversion of 14C-arachidonic acid to PGE2); type: biochemical; conditions: read-out: IC50 for inhibition of cyclooxygenase
T3 construct: Lyophilized sheep seminal vesicle microsomes are utilized as the prostaglandin-synthesizing enzyme preparation; from tissue; host or cells: sheep seminal vesicle microsomes, lyophilized
T3 sequence (P05979 25-600): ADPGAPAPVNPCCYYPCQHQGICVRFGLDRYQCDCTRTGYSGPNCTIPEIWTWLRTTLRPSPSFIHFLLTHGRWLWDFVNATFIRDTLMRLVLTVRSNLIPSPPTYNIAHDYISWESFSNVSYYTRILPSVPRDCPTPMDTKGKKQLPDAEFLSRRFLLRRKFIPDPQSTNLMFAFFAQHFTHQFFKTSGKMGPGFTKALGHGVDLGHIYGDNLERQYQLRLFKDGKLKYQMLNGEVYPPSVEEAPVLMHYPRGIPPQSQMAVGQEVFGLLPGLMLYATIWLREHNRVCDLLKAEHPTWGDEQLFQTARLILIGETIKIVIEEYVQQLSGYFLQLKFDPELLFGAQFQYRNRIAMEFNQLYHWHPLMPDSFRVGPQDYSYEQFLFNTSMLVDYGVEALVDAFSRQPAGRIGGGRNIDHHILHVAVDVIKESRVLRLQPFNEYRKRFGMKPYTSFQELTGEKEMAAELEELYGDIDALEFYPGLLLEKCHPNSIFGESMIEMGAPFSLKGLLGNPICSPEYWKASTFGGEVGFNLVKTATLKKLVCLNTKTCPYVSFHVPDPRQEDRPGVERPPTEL
Method: The in-vitro effect on prostaglandin cyclooxygenase is measured by a modification of the method of Takeguchi et al described in Biochemistry 10, 2372 (1971); the testing procedure is as follows: Lyophilized sheep seminal vesicle microsomes are utilized as the prostaglandin-synthesizing enzyme preparation. The conversion of ^14 C-arachidonic acid to PGE2 is measured. Test compounds (dissolved in buffer, or if necessary, in small amount of ethanol) are added to the incubation mixture. The prostaglandins are extracted and separated by thin-layer chromatography; the plates are scanned, the radioactive zones corresponding to PGE2 are transferred to liquid scintillation vials and counted for radioactivity. IC50 values for inhibition are determined graphically as the concentration of test compound causing a 50% reduction in the amount of PGE2 synthesized.

With `O=C(O)CCCCCc1cccc2cncn12` [Example 2, 5-(5-carboxypentyl)-imidazo[1,5-a]pyridine] the “protection against sudden death” value [1] was “protects against sudden death”, the “decrease with respect to prostacyclin (plasma 6-keto-PGF1α)” value ([2]; oral dose 0.25 mg/kg or higher doses) was “no significant decrease” and the “reduction of plasma levels of thromboxane B2” value ([2]; oral dose as low as 0.25 mg/kg) was “over 50%”. The IC50 [3] was greater than 100 µM, the IC50 [4] was roughly 0.003 µM and the bleeding time (bleeding time) was “prolongs bleeding time”. The IC50 [5] was greater than 100 µM.

Source: patent publication US4444775A, “Substituted imidazo[1,5-A]pyridines” (Ciba-Geigy Corporation, priority 1982, dated 1984)
